Results as given in patent US20250051324A1, “PARP INHIBITOR, PHARMACEUTICAL COMPOSITION COMPRISING SAME, AND USE THEREOF” (KEYTHERA (SUZHOU) BIO-PHARMACEUTICALS CO., LIMITED, priority 2021, published 2025).

Columns and labels:
[1] = target: PARP1 (Homo sapiens (Human), UniProt P09874); assay: PARP enzyme activity assay (PARP1 chemiluminescent assay kit); type: biochemical; settings: enzyme inhibitory activity, read-out: PARP-1 IC50
Procedure, shortened: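 Chemiluminescent kit measuring PARP1 poly(ADP-ribosylation) of plate-coated histones in presence of activated DNA; compounds in 1:3 serial dilution, top 10 μM before 10-fold buffer dilution. Enzyme (2.5 ng/μL added) reacted 60 min at room temperature, detected by streptavidin-HRP luminescence; IC50 from log-concentration vs % inhibition.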

[2] = Evaluation of pharmacokinetics in rats; type: in vivo; settings: male, SD, rat, plasma, 1 mg/kg, oral gavage (PO, 1 mpk)
From the text: Test Animals: 6-8 Week Old Male SD Rats
Food was restored two hours after dosing.

[3] = test system: human breast cancer (MDA-MB-436) cell line; assay: Mouse CDX tumor model (MDA-MB-436 subcutaneous xenograft); type: in vivo; settings: for Tumor Growth Inhibition Rate (TGI): 28 days
Procedure: Test Objective: The efficacy of the compounds was evaluated in a subcutaneous xenograft model of human breast cancer (MDA-MB-436) cell line in mice.
Test Compounds: Olaparib, Compound 1
Experimental Animals: Female NOD SCID mice, 4-5 weeks old, purchased from Nanjing Jicui.
Housing and Management: The experimental animals were housed in SPF-grade, temperature- and humidity-controlled clean rooms, using individually ventilated cages (IVC) with no more than 5 mice per cage. Temperature/humidity was controlled within the range of (23±3)° C./40-70%. Feed and water: SPF-grade mouse feed, sterilized by cobalt-60 irradiation. Drinking water was ultrafiltered and autoclaved. Animals had free access to sterile food and water. Animal identification: ear tags.
Tumor Cell Line and Tumor Model: MDA-MB-436 cells (Nanjing Cobioer Biotechnology Co., Ltd., Cat. No: CBP60385) were cultured in vitro in DMEM complete medium containing 10% fetal bovine serum, 1% penicillin-streptomycin, 1% insulin, and 16 μg/mL glutathione (37° C., 5% CO2). When the cells met the requirements for the in vivo efficacy experiment, they were collected, counted, and prepared into a PBS cell suspension. Each mouse (5-6 weeks old NOD SCID) was inoculated subcutaneously on the right flank with 0.9×10^7 cells. Tumor volume was measured and calculated three times a week after inoculation. When the tumor volume reached approximately 200-300 mm^3, the mice were grouped for administration.
Experimental Groups: The experiment was divided into the following groups: vehicle control group; Olaparib 100 mg/kg group; Compound 1 0.1 mg/kg group; Compound 1 0.3 mg/kg group; and Compound 1 1.0 mg/kg group. All groups were administered orally by gavage once daily. […] After 28 days of administration, the tumor volume was used to calculate the tumor growth inhibition rate (TGI %), and the tumor inhibition effect was statistically analyzed using software such as Excel, etc.

[4] = Liver microsome metabolism assay; settings: CD1, mouse, liver microsomes
Procedure: Experimental Materials: Mixed CD1 mouse liver microsomal enzyme protein was purchased from Xenotech (#M1000), and NADPH was purchased from Abmole (#M9076).
1. To the liver microsomal enzyme reaction system, 210 μL of phosphate buffer was added, followed by 12.5 μL of liver microsomal enzyme at a concentration of 20 mg/mL. Then, 25 μL of NADPH at a concentration of 10 mM was added to the system, mixed well, and incubated in a 37° C. water bath with shaking for 10 minutes.
2. The test compound, stored at a concentration of 10 mM, was diluted to 100 μM with DMSO. Then, 2.5 μL of the diluted test compound was added to the reaction system, mixed well, and incubated in a 37° C. water bath with shaking.
3. At 0.5, 5, 10, 20, 30, and 60 minutes, 25 μL of the enzyme reaction mixture was taken and added to 125 μL of cold acetonitrile containing dexamethasone as an internal standard. The mixture was centrifuged at 4000 g for 20 minutes, and the supernatant was mixed with an equal volume of distilled water. The mixed sample was then subjected to quantitative analysis by liquid chromatography-mass spectrometry.
4. Calculation of in vitro drug metabolism half-life and drug clearance rate:
t1/2=−0.693/k. (k: the slope of the linear regression of the natural logarithm of the percentage of drug remaining versus incubation time).

[5] = Evaluation of pharmacokinetics in mice; settings: male, ICR (CD1), mouse, plasma, po, 10 mg/kg
Procedure: Test Objective: The pharmacokinetics of the example compounds of the present application were tested in mice. By measuring the drug concentration in mouse plasma, the pharmacokinetic behavior of the compounds of the present invention was studied to evaluate their pharmacokinetic characteristics.
Test Animals: 6-8 Week Old Male ICR (CD1) Mice
Oral Gavage Drug Preparation: An appropriate amount of the test compound was first weighed and dissolved in DMSO (Macklin cas: 67-68-5) to prepare a 20 mg/mL solution. Then, 75 μL of this solution was added to 150 μL of Solutol (Sigma cas: 70142-34-6), followed by 1.275 mL of 20% Captisol (Selleck cas: 182410-00-0), resulting in a final drug concentration of 1 mg/mL.
Intravenous Injection Drug Preparation: An appropriate amount of the test compound was first weighed and dissolved in DMSO (Macklin cas: 67-68-5) to prepare a 30 mg/mL solution. Then, 15 μL of this solution was added to 150 μL of Solutol (Sigma cas: 70142-34-6), followed by 1.335 mL of 20% Captisol (Selleck cas: 182410-00-0), resulting in a final drug concentration of 0.3 mg/mL.
Procedures: The mice were fasted overnight with free access to water before the experiment. Food was restored two hours after dosing. Blood samples were collected at different time points after intravenous injection or oral gavage of the test compound in mice, and the compound concentration in plasma was measured. Approximately 50 μL of blood was collected from each animal using a capillary sampling tube via the orbital venous plexus, with heparin sodium as an anticoagulant. Blood samples were placed on ice, centrifuged at 3500 r/min for 10 minutes to separate the plasma, and 20 μL of the collected plasma was added to 200 μL of acetonitrile (Merck cas: 75-05-8) containing 200 nM dexamethasone (Selleck cas: 50-02-2) as an internal standard. The mixture was centrifuged at 8000 r/min for 20 minutes. After centrifugation, 150 μL of the supernatant was transferred to a new centrifuge tube, and 150 μL of 0.1% formic acid (Fisher cas: 207868) was added. The mixture was mixed well, and 5 μL of the sample was subjected to quantitative analysis by liquid chromatography-mass spectrometry (Q-TOF LC/MS).
The test compound was serially diluted with DMSO to cover the compound concentrations expected in plasma samples to be tested, with a blank sample (containing only DMSO) included.
2 μL of each diluted sample at various concentrations was added to 18 μL of normal ICR mouse plasma, mixed, and then added to 200 μL of acetonitrile (Merck cas: 75-05-8) containing 200 nM dexamethasone (Selleck cas: 50-02-2) as an internal standard. The mixture was centrifuged for 20 minutes (8000 r/min). 150 μL of the supernatant was transferred to a new centrifuge tube, and 150 μL of 0.1% formic acid (Fisher cas: 207868) was added. The mixture was mixed well, and 5 μL of the sample was subjected to quantitative analysis by liquid chromatography-mass spectrometry (Q-TOF LC/MS).
The final standard curve was plotted using the concentration of the test compound after dilution on the abscissa and the ratio of the signal of the compound to the internal standard (dexamethasone) on the ordinate. The standard curve was generated using linear regression with GraphPad Prism 8 software (R2>0.9900).
Data Analysis: calculation of pharmacokinetic parameters: the concentration of the test compound in plasma at different time points after intravenous injection or oral gavage in ICR mice was determined based on the above standard curve, and pharmacokinetic parameters (T1/2, Cmax, AUC, etc.) were calculated using the Phoenix WinNonlin 8.1 non-compartmental analysis model.

PARP1, sequence (P09874 whole entry): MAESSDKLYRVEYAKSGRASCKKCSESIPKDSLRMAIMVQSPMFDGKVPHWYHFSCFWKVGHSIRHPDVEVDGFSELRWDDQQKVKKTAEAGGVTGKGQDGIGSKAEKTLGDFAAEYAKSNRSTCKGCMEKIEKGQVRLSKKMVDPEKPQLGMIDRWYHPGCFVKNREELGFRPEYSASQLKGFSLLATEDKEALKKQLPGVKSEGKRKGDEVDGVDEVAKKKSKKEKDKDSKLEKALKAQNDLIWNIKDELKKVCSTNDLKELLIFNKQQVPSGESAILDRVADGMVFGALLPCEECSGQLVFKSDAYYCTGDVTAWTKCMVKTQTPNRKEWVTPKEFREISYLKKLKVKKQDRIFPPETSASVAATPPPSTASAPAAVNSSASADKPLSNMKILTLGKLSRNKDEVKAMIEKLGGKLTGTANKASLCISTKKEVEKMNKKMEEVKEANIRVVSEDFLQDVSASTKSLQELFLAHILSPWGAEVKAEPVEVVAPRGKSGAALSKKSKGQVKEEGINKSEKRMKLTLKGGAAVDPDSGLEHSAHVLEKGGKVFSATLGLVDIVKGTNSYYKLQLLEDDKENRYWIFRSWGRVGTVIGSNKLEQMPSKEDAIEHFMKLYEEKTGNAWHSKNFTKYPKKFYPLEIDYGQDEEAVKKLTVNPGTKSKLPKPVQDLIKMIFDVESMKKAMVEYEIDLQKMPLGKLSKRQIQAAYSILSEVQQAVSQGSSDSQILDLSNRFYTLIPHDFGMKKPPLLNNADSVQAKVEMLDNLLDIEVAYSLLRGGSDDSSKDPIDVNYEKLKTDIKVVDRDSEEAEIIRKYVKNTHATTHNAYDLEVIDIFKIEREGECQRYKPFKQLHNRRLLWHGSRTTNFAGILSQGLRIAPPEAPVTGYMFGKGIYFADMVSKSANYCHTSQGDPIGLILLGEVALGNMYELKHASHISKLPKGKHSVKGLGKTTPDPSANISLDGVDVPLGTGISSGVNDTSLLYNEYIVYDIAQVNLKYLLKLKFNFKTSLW

Work on `CNC(=O)c1ccc(N2CCN(Cc3cnc4c(C)c(C(F)(F)F)c(=O)[nH]c4c3)CC2)cn1` [Compound 1, N-methyl-5-(4-((8-methyl-6-oxo-7-(trifluoromethyl)-5,6-dihydro-1,5-naphthyridin-3-yl)methyl)piperazin-1-yl)picolinamide] yielded an IC50 [1] of 2.78 nM, an AUC(0-inf) [2] of 11.3 µg·h/mL and a Cmax [2] of 1740 ng/mL. For the same compound, the half-life [2] was 4.33 h, the “Tumor Growth Inhibition Rate (TGI)” value ([3]; 0.1 mg/kg oral once daily) was 89% and the “Tumor Growth Inhibition Rate (TGI)” value ([3]; 0.3 mg/kg oral once daily) was 113%. The “Tumor Growth Inhibition Rate (TGI)” value ([3]; 1.0 mg/kg oral once daily) was 115%, the “Body weight vs vehicle control group” value ([3]; MDA-MB-436 model, all treatment groups) was “no significant difference” and the microsomal CLint at 1 µM [4] was 0.32 µL/min/mg. It also gave an AUC(0-inf) [5] of 972 µg·h/mL, a Cmax [5] of 39600 ng/mL and a half-life [5] of 17.9 h.
